Experiments:
[1] = system: caspase-1; assay: Retinal cleaved caspase-1 immunoblot in mouse RRD model (inflammasome activation); format: in vivo, mice
Experimental: (§1) RRD was induced in mice via subretinal injection (SRI) of 1% carboxymethylcellulose (CMC). To simulate outcomes following the clinical management of RRD, optimal conditions were determined in which SRI of CMC induced spontaneous retinal reattachment (SRR) over 10 days (RRD/SRR). K-9, 3TC, or AZT was administered via intraperitoneal (IP) injection. Inflammasome activation was monitored by cleaved caspase-1 abundance, and photoreceptor death was assessed by TUNEL staining. Retinal function was assessed by full-field scotopic electroretinography (ERG).
(§2) A persistent RRD model was established by subretinal injection (SRI) of 3 μl 1% carboxymethyl cellulose (CMC; Refresh Liquigel, Allergan, Irvine, CA, USA). The model of RRD/SRR was achieved by SRI of 3 μl 0.03% CMC. SRIs were performed as previously described (23) using a 35-gauge needle (Ito Co., Fuji, Japan).
(§3) NRTIs and K-9 were delivered via intraperitoneal (IP) injection in equimolar amounts. Lamivudine (3TC, 50 mg/kg) or azidothymidine (AZT, 60 mg/kg) was injected twice daily (SelleckChem, Houston, TX, USA). Kamuvudine K-9 (3-methyl-3TC) was synthesized as previously described (21) and administered either at a low dose (K-9L; 90 mg/kg daily) or a high dose (K-9H; 60 mg/kg twice daily, equimolar to NRTI doses). IP injection of phosphate buffered saline (PBS) was used as control. […]

[2] = system: retinal electrical function; assay: Full-field scotopic ERG in RRD/SRR mouse model; format: in vivo, mice
Experimental: FIGS. 7A-7D. K-9 improves ERG functional outcomes in RRD/SRR model (A) Experiment overview: the RRD/SRR model was established day 0 (SRI of 3 μl 0.03% CMC). K-9 (60 mg/kg) or PBS was administered days 0-10 twice daily IP. Scotopic ERG was measured at baseline, as well as days 7, 11, and 14. In 7A-D, n=10-12 per group. (B) ERG waveforms representative of the K-9 and PBS groups, at baseline and day 14. (C) Amplitudes of a- and b-waves over time in the K-9 (red) and PBS (blue) groups at the stimulation intensity of 1.0 log cd sec/m2. […] Data (7C-D) is represented as mean±SEM. (D) AA from baseline for PBS (blue) and K-9 (red) groups.
RRD was induced in mice via subretinal injection (SRI) of 1% carboxymethylcellulose (CMC). To simulate outcomes following the clinical management of RRD, optimal conditions were determined in which SRI of CMC induced spontaneous retinal reattachment (SRR) over 10 days (RRD/SRR). […] Inflammasome activation was monitored by cleaved caspase-1 abundance, and photoreceptor death was assessed by TUNEL staining. Retinal function was assessed by full-field scotopic electroretinography (ERG). […]
ERG was recorded at baseline, as well as days 7, 11, and 14 following SRI of CMC. Mice (n=6) were dark adapted overnight, and then ERG was measured using Ganzfeld ERG (Phoenix Laboratories). […] Responses were recorded to white-flash stimuli ranging from −1.7 to 1.0 log cd s/m2. […]

[3] = system: retinal function; assay: Scotopic ERG in rd10 mouse model of retinal neuronal degeneration; format: in vivo; conditions: rd10 mice; 60 mg/kg twice daily IP, P15 until P28; vs vehicle (PBS)
Experimental: FIG. 8. K-9 protects retinal function. Starting at postnatal day 15 (P15) until P28, rd10 mice were treated with K-9 at 60 mg/kg twice daily via intraperitoneal injection or with an equal volume of vehicle (PBS). Retinal function was monitored with scotopic electroretinography (ERG).
K-9 protects retinal function in the rd10 mouse model of retinal neuronal degeneration. rd10 is an autosomal missense R560C mutation in the Pde6b gene, which results in a recessively inherited retinal neuronal degeneration (FIG. 8). Starting at postnatal day 15 (P15) until P28, rd10 mice were treated with K-9 at 60 mg/kg twice daily via intraperitoneal injection or with an equal volume of vehicle (PBS). Retinal function was monitored with scotopic electroretinography (ERG).

[4] = system: photoreceptors; assay: TUNEL staining of retinal outer nuclear layer in mouse RRD model (photoreceptor death); format: in vivo, mice
Experimental: as §1, §2, §3

Compound: CCOCC1OC(n2ccc(N(CC)CC)nc2=O)CS1 (stereo not shown) [K-9, 4-(diethylamino)-1-[2-(ethoxymethyl)-1,3-oxathiolan-5-yl]-1,2-dihydropyrimidin-2-one]
- degree of suppression of caspase-1 activation ([1]; day 3 RRD model, IP, mean±SEM, K-9 versus NRTIs P<0.05): 84%±1%
- retinal cleaved caspase-1 ([1]; three days after inducing RRD (SRI 3 μl 1% CMC), IP treatment, compared with PBS-treated mice): dose-dependent and complete reduction
- retinal electrical function (ERG a- and b-wave amplitudes) ([2]; RRD/SRR model (SRI 3 μl 0.03% CMC), K-9 60 mg/kg twice daily IP days 0-10, ERG days 7-14, vs PBS): preserves retinal electrical function
- ERG parameters following retinal reattachment ([2]; RRD/SRR model, K-9 administered during the period of retinal detachment): improvement
- ERG a-wave and b-wave [3]: completed protection
- degree of photoreceptor protection ([4]; day 3 RRD model, TUNEL, IP, mean±SEM, K-9 versus NRTIs P<0.05): 56%±7%
- number of TUNEL+ cells in the ONL of the retina ([4]; three days after inducing RRD, IP treatment, compared with PBS-treatment): dose-dependent reduction

— US20260083768A1, “INFLAMMASOME INHIBITION FOR NEUROPROTECTION” (University of Virginia Patent Foundation, priority 2022, published 2026)
